Experimental findings from US20250361230A1, “LATS Inhibitors and Uses Thereof” (The USA, as Represented by the Secretary, Dept. of Heath …, priority 2022, published 2025) are described below.

Like-named read-outs stand apart in the source and are kept apart here.

This experiment deals with T1, LATS1 Kinase-NanoLuc fusion in HEK-293 cells (Homo sapiens, UniProt O95835).
T1 construct: host or cells: HEK-293
T1 sequence (O95835 1-1130): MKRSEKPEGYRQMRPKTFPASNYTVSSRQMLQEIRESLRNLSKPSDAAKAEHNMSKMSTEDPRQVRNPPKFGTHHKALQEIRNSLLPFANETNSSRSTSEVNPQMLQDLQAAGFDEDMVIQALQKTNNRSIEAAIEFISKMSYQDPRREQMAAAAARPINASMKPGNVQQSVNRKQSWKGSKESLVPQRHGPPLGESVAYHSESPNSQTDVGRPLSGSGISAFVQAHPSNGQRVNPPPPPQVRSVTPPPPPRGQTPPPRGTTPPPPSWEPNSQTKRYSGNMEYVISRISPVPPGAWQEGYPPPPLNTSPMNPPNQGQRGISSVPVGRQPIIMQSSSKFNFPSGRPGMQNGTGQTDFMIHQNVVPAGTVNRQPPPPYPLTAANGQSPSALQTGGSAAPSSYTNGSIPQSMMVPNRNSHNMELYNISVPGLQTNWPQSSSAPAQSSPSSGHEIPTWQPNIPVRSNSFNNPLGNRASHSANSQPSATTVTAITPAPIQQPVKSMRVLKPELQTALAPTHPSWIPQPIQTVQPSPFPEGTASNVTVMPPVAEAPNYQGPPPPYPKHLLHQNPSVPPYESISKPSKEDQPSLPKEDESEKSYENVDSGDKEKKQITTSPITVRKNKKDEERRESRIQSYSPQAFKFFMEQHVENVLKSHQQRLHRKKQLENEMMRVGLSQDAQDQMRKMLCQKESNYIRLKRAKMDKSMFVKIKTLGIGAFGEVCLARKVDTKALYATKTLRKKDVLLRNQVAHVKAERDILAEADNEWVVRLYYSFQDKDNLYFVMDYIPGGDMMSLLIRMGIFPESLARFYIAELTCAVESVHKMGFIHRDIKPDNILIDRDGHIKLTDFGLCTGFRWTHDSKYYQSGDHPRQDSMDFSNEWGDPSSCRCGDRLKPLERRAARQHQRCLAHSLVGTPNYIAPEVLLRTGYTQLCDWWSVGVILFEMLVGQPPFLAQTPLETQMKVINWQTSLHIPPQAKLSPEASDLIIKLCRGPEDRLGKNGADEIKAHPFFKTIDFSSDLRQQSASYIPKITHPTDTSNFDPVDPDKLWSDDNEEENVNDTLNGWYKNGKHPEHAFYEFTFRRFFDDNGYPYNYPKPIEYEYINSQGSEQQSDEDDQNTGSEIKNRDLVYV
The experiment in a line: NanoBRET target engagement assay in transfected HEK-293 cells, LATS1. Format: cell-based. Summed up: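 HEK-293 cells transiently transfected with kinase-NanoLuc fusion plasmid for 22-24 h, then incubated with compound and NanoBRET tracer for 1 hour at 37° C. After substrate plus extracellular NanoLuc inhibitor addition, 460 and 600 nm emissions read; no-tracer-corrected BRET ratio used to derive IC50 values.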
In general terms: In BRET a luciferase serves as donor, and the signal depends on an acceptor being close.

[1] abbreviates: Table 32, NanoBRET, HEK-293 cells, read-out: LATS1 (Cellular) IC50.

Regarding `OC1(c2ccc(-c3ccnc4[nH]cc(F)c34)cc2)CC2(CNC2)C1` [Compound 319, 6-(4-(3-fluoro-1H-pyrrolo[2,3-b]pyridin-4-yl)phenyl)-2-azaspiro[3.3]heptan-6-ol], the IC50 (as a rule, the concentration at which inhibition is half-maximal) (Table 28, NanoBRET, HEK-293 cells, read-out: LATS1 (Cellular) IC50) came out at 27700 nM.
As to `NCC(O)(c1ccc(Cl)cc1)c1ccc(-c2ccnc3[nH]ccc23)cc1` (stereo not drawn) [Compound 1001, 1-(4-(1H-pyrrolo[2,3-b]pyridin-4-yl)phenyl)-2-amino-1-(4-chlorophenyl)ethan-1-ol], the IC50 under setting [1] was found to be 123 nM.
In the case of `NCC(O)(c1ccc(Cl)cc1)c1ccc(-c2ccnc3[nH]cc(F)c23)cc1` (stereo not drawn) [Compound 1002, 2-amino-1-(4-chlorophenyl)-1-(4-(3-fluoro-1H-pyrrolo[2,3-b]pyridin-4-yl)phenyl)ethan-1-ol], the IC50 under setting [1] was determined as 55 nM.
On the same count and under the same terms, under `COC(=O)c1c[nH]c2nccc(-c3ccc(C(O)(CN)c4ccc(Cl)cc4)cc3)c12` (stereo not drawn) [Compound 1004, Methyl 4-(4-(2-amino-1-(4-chlorophenyl)-1-hydroxyethyl)phenyl)-1H-pyrrolo[2,3-b]pyridine-3-carboxylate] stands 2000 nM; under `NCC(O)(c1ccc(Cl)cc1)c1ccc(-c2ccnc3[nH]cc(Br)c23)cc1` (stereo not drawn) [Compound 1005, 2-amino-1-(4-(3-bromo-1H-pyrrolo[2,3-b]pyridin-4-yl)phenyl)-1-(4-chlorophenyl)ethan-1-ol], 8 nM; under `NCC(O)(c1ccc(Cl)cc1)c1ccc(-c2ccnc3[nH]cc(-c4ccccc4)c23)cc1` (stereo not drawn) [Compound 1006, 2-amino-1-(4-chlorophenyl)-1-(4-(3-phenyl-1H-pyrrolo[2,3-b]pyridin-4-yl)phenyl)ethan-1-ol], 283 nM.
On the same count and under the same terms, the figure for `NCC(O)(c1ccc(Cl)cc1)c1ccc(-c2ccnc3[nH]cc(-c4cccnc4)c23)cc1` (stereo not drawn) [Compound 1007, 2-amino-1-(4-chlorophenyl)-1-(4-(3-(pyridin-3-yl)-1H-pyrrolo[2,3-b]pyridin-4-yl)phenyl)ethan-1-ol] is 309 nM; for `NCC(O)(c1ccc(Cl)cc1)c1ccc(-c2ccnc3[nH]cc(Br)c23)nc1` (stereo not drawn) [Compound 1011, 2-amino-1-(6-(3-bromo-1H-pyrrolo[2,3-b]pyridin-4-yl)pyridin-3-yl)-1-(4-chlorophenyl)ethan-1-ol] it is 24 nM; for `NCC(=O)NCC(O)(c1ccc(Cl)cc1)c1ccc(-c2ccnc3[nH]cc(Cl)c23)cc1` (stereo not drawn) [Compound 1021, 2-amino-N-(2-(4-(3-chloro-1H-pyrrolo[2,3-b]pyridin-4-yl)phenyl)-2-(4-chlorophenyl)-2-hydroxyethyl) acetamide] it is 159 nM.
Where the note is “cellular”, `Cc1cc(-c2ccnc3[nH]cc(C#N)c23)cc(F)c1[C@@]1(O)[C@H](C)CN(C2CCS(=O)(=O)CC2)C[C@@H]1C` [Compound 2002, 4-(4-((3S,4s,5R)-1-(1,1-dioxidotetrahydro-2H-thiopyran-4-yl)-4-hydroxy-3,5-dimethylpiperidin-4-yl)-3-fluoro-5-methylphenyl)-1H-pyrrolo[2,3-b]pyridine-3-carbonitrile] displayed an IC50 of 30.4 nM.
Still for that read-out and setting: under `Cc1cc(-c2ccnc3[nH]cc(C#N)c23)cc(F)c1[C@@]1(O)[C@H](C)CN(C(=O)CN)C[C@@H]1C` [Compound 2004, 4-(3-fluoro-4-((3S,4s,5R)-1-glycyl-4-hydroxy-3,5-dimethylpiperidin-4-yl)-5-methylphenyl)-1H-pyrrolo[2,3-b]pyridine-3-carbonitrile] stands 2.5 nM; under `Cc1cc(-c2ccnc3[nH]cc(C#N)c23)ccc1[C@@]1(O)[C@H](C)CN(C(=O)CN)C[C@@H]1C` [Compound 2005, 4-(4-((3S,4s,5R)-1-glycyl-4-hydroxy-3,5-dimethylpiperidin-4-yl)-3-methylphenyl)-1H-pyrrolo[2,3-b]pyridine-3-carbonitrile], 46.6 nM.
Still for that read-out and setting: the figure for `Cc1cc(-c2ccnc3[nH]cc(C#N)c23)cc(F)c1[C@@]1(O)[C@H](C)CN(C(=O)[C@H](N)CO)C[C@@H]1C` [Compound 2007, 4-(4-((3S,4S,5R)-1-(D-seryl)-4-hydroxy-3,5-dimethylpiperidin-4-yl)-3-fluoro-5-methylphenyl)-1H-pyrrolo[2,3-b]pyridine-3-carbonitrile] is below 2.5 nM; for `Cc1cc(-c2ccnc3[nH]cc(C#N)c23)cc(F)c1[C@@]1(O)[C@H](C)CN(C(=O)[C@](C)(N)CO)C[C@@H]1C` [Compound 2008, 4-(4-((3S,4s,5R)-1-(2-amino-3-hydroxy-2-methylpropanoyl)-4-hydroxy-3,5-dimethylpiperidin-4-yl)-3-fluoro-5-methylphenyl)-1H-pyrrolo[2,3-b]pyridine-3-carbonitrile] it is below 2.5 nM.
Molecule `Cc1cc(-c2ccnc3[nH]cc(C#N)c23)cc(F)c1[C@@]1(O)[C@H](C)CN(C(=O)[C@H](C)N)C[C@@H]1C` [Compound 2011, 4-(4-((3S,4R,5R)-1-(L-alanyl)-4-hydroxy-3,5-dimethylpiperidin-4-yl)-3-fluoro-5-methylphenyl)-1H-pyrrolo[2,3-b]pyridine-3-carbonitrile] returned a 50% inhibitory concentration (IC50) (cellular) below 2.5 nM.
Consider `CNCC(=O)N1C[C@@H](C)[C@](O)(c2c(C)cc(-c3ccnc4[nH]cc(C#N)c34)cc2F)[C@@H](C)C1` [Compound 2012, 4-(3-fluoro-4-((3S,4s,5R)-4-hydroxy-3,5-dimethyl-1-(methylglycyl)piperidin-4-yl)-5-methylphenyl)-1H-pyrrolo[2,3-b]pyridine-3-carbonitrile], for which, for the setting “cellular”, the concentration for half-maximal inhibition (IC50) is below 2.5 nM.
Same read-out and setting: under `Cc1cc(-c2ccnc3[nH]cc(C#N)c23)cc(F)c1[C@@]1(O)[C@H](C)CN(C(=O)CNCC(F)(F)F)C[C@@H]1C` [Compound 2014, 4-(3-fluoro-4-((3S,4s,5R)-4-hydroxy-3,5-dimethyl-1-((2,2,2-trifluoroethyl)glycyl)piperidin-4-yl)-5-methylphenyl)-1H-pyrrolo[2,3-b]pyridine-3-carbonitrile] stands 139 nM; under `Cc1cc(-c2ccnc3[nH]cc(C#N)c23)cc(F)c1[C@@]1(O)[C@H](C)CN(C(=O)[C@@H](C)N)C[C@@H]1C` [Compound 2015, 4-(4-((3S,4S,5R)-1-(D-alanyl)-4-hydroxy-3,5-dimethylpiperidin-4-yl)-3-fluoro-5-methylphenyl)-1H-pyrrolo[2,3-b]pyridine-3-carbonitrile], below 2.5 nM.
On the same count and under the same terms, under `Cc1cc(-c2ccnc3[nH]cc(C#N)c23)cc(F)c1[C@@]1(O)[C@H](C)CN(C(=O)C(N)C(F)(F)F)C[C@@H]1C` (stereo partly drawn) [Compound 2017, 4-(4-((3S,4s,5R)-1-(2-amino-3,3,3-trifluoropropanoyl)-4-hydroxy-3,5-dimethylpiperidin-4-yl)-3-fluoro-5-methylphenyl)-1H-pyrrolo[2,3-b]pyridine-3-carbonitrile] stands below 2.5 nM; under `Cc1cc(-c2ccnc3[nH]cc(C#N)c23)cc(F)c1[C@@]1(O)[C@H](C)CN(C(=O)[C@H](CO)N(C)C)C[C@@H]1C` [Compound 2023, 4-(4-((3S,4R,5R)-1-(dimethyl-L-seryl)-4-hydroxy-3,5-dimethylpiperidin-4-yl)-3-fluoro-5-methylphenyl)-1H-pyrrolo[2,3-b]pyridine-3-carbonitrile], below 2.5 nM; under `Cc1cc(-c2ccnc3[nH]cc(C#N)c23)cc(F)c1[C@@]1(O)[C@H](C)CNC[C@@H]1C` [Compound 2024, 4-(3-fluoro-4-((3S,4s,5R)-4-hydroxy-3,5-dimethylpiperidin-4-yl)-5-methylphenyl)-1H-pyrrolo[2,3-b]pyridine-3-carbonitrile], 37.9 nM.
